One data set has as its target T1, hERG potassium channel (Homo sapiens, UniProt Q12809).
T1 construct: host or cells: HEK-293 stably expressing hERG
Briefly: hERG inhibition, automated patch clamp (QPatch 48X) in HEK-293 cells stably expressing hERG. The conditions noted are these: HEK-293 cells stably expressing hERG potassium channel, read-out: hERG inhibition rate; for inhibition at 1 µM: pH 7.4, 1 µM; for inhibition at 10 µM: pH 7.4, 10 µM. Type of data set: cell-based. The procedure: The culture temperature was 37 °C, and the carbon dioxide concentration was 5%.
Cell passage: The old medium was removed, and the cells were washed once with PBS. […] Once the cells were detached from the bottom of the dish, approximately 5 mL of complete medium pre-warmed at 37 °C was added. The cell suspension was gently triturated with a pipette to dissociate aggregated cells. The cell suspension was transferred to a sterile centrifuge tube and centrifuged at 1000 rpm for 5 min to collect the cells. For expansion or maintenance, the cells were seeded into 10 cm cell culture dishes at a density of 6×10^5 cells per cell culture dish (final volume: 5 mL).
Medium was added to terminate digestion, followed by centrifugation. The cells were then resuspended and counted. The cell density was adjusted to 2-3×10^6 cells/mL. Subsequently, the cells were gently mixed for 15-20 min on a balance shaker at room temperature, and then loaded for detection.
In this study, the automated patch clamp QPatch 48X (Sophion) system was used for electrophysiological detection.
First, the prepared cells were placed on the centrifuge of the Qpatch workstation. The cells were washed with multiple centrifugation/suspension cycles, and the cell culture medium was replaced with extracellular fluid. One MTP-96 plate was retrieved and placed at the MTP source position. The QPlate chip was retrieved and placed at the QPlate source position. The robotic arm scanned the barcodes of MTP-96 plate and QPlate chip, and transferred them to the measurement station. The intracellular fluid and extracellular fluid were aspirated from the reservoir and added to the intracellular fluid pool and the pool of cell and compound of the QPlate chip, respectively. At the measurement station, all measurement sites on the QPlate experienced initial quality control. The quality control process involved aspirating the cell suspension from the cell container of the centrifuge, positioning the cells onto the chip wells via a pressure controller, and establishing high-resistance seal to form a whole-cell recording mode. Once a stable control current baseline was obtained, the test substances can be sequentially aspirated from the test substance MTP-96 plate in order of concentration and applied to the cells.
The voltage stimulation protocol for whole-cell patch-clamp recording of hERG current was as follows: after the whole-cell seal was formed, the cell membrane voltage was clamped at -80 mV. The clamped voltage was depolarized from -80 mV to -50 mV and maintained for 0.5 s (as leak current detection), then stepped to 30 mV and maintained for 2.5 s, and then rapidly returned to -50 mV and maintained for 4 s, whereby tail current of the hERG channel can be elicited. Data was collected repeatedly every 10 s to observe the effect of the drug on hERG tail current. Experimental data was collected by the QPatch screening workstation and stored in the database server.
For each drug concentration, a two-dose regimen was set for a duration of at least 5 min. For each cell, the current detected in the compound-free extracellular fluid served as self-controls, and two cells were detected in independent replicates. All electrophysiological experiments were conducted at room temperature.
The second of the two dosages was used for data analysis. For each drug concentration, the average of the last three data points prior to the next drug concentration was taken to represent the current value for the drug concentration. The current value representing each drug concentration was normalized against the reference current value used as a blank control, and then the inhibition rate corresponding to each drug concentration was calculated.
(In general: hERG is a cardiac potassium channel; its block is linked to QT prolongation.)

Another data set has as its target NLRP3 (Mus musculus, UniProt Q8R4B8). Briefly: Inhibition of canonical NLRP3 activation (LPS+ATP/Nig) in J774A.1 cells, IL-1β release by ELISA, single concentration. It counts as cell-based. Also on record: The mouse macrophage cell line J774A.1 was used, and LPS was used as the first signal; host or cells: J774A.1 mouse monocyte-macrophage cell line. The conditions noted are these: J774.A1, 1 µM compound, LPS + 5 mM ATP or 10 µM Nig, compared with the positive control, read-out: inhibition of IL-1β release. (An ELISA detects its analyte on a solid surface through an enzyme-linked reagent.)

SMILES strings stand for the structures. A value given as a limit tells only on which side of the number the result lay.

T1 sequence (Q12809 whole entry): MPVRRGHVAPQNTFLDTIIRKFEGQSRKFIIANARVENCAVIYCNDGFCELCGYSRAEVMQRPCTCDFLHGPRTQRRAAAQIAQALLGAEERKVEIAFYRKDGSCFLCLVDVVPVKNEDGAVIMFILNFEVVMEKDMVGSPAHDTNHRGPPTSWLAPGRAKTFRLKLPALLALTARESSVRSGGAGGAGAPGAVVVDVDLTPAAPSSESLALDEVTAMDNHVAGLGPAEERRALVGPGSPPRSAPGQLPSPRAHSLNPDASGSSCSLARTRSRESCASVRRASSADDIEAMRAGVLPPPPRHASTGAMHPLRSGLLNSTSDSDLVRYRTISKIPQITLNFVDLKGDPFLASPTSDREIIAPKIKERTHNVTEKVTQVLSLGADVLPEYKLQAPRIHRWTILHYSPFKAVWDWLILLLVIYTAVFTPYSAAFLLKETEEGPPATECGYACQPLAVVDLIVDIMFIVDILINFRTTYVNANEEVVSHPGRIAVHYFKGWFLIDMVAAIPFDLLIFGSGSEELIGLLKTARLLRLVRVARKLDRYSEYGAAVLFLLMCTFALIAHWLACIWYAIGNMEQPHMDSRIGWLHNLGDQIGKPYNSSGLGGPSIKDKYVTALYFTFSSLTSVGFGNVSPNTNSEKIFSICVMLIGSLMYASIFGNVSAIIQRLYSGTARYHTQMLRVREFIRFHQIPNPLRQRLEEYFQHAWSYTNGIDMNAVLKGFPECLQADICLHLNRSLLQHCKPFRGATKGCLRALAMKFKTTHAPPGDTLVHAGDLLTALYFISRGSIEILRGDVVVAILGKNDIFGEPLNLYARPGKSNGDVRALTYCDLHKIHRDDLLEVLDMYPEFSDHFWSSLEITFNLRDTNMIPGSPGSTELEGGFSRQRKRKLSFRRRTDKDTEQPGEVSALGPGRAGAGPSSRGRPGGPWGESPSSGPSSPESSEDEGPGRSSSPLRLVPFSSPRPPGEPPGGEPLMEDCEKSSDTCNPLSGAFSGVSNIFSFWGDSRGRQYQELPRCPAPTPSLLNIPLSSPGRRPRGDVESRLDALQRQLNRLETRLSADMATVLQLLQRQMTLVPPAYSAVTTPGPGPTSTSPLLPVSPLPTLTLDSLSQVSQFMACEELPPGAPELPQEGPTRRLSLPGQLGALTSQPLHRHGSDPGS
NLRP3, sequence (Q8R4B8 whole entry): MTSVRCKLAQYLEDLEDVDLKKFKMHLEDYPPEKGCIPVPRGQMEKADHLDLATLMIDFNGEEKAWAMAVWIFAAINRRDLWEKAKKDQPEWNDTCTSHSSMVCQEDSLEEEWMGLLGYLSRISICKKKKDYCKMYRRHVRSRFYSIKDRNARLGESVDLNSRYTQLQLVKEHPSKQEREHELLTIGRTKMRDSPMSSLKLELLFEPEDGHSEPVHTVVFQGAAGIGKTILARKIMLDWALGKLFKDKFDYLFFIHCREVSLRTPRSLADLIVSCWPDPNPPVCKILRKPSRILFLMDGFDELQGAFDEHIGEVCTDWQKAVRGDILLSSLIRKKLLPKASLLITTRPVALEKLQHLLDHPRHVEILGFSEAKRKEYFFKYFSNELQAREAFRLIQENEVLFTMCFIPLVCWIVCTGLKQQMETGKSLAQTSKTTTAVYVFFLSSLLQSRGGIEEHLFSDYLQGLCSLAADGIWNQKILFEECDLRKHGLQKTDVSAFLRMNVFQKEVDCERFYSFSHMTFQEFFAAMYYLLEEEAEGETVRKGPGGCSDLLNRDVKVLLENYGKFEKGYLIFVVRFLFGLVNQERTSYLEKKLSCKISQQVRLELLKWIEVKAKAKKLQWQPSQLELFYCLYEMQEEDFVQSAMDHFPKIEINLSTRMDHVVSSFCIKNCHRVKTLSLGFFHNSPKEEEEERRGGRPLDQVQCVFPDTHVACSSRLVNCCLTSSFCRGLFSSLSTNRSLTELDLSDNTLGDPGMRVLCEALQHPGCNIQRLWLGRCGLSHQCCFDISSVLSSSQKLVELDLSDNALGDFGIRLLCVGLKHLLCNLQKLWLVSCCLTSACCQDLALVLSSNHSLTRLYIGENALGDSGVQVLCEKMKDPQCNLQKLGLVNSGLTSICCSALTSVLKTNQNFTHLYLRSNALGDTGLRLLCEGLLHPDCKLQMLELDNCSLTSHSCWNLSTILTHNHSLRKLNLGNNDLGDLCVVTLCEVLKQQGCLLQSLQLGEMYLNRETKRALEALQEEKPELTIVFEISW

For `COc1ccc(S(=O)(=O)NC(=O)Nc2c3c(cc4c2CCC4)CCC3)cc1CN(C)C` [Example 3, 3-((dimethylamino)methyl)-N-((1,2,3,5,6,7-hexahydro-s-indacen-4-yl)carbamoyl)-4-methoxybenzenesulfonamide], the inhibition at 1 µM is 0.45% at hERG potassium channel and above 80% on NLRP3. Besides, the inhibition at 10 µM on hERG potassium channel was 1.56%.
In the same order, the values of `CN(C)Cc1cc(S(=O)(=O)NC(=O)Nc2c3c(cc4c2CCC4)CCC3)ccc1O` [Example 5, 3-((dimethylamino)methyl)-N-((1,2,3,5,6,7-hexahydro-s-indacen-4-yl)carbamoyl)-4-hydroxybenzenesulfonamide] are 0.28%, above 80% and -0.61%.
In the same order, the values of `CN(C)Cc1cccc(S(=O)(=O)NC(=O)Nc2c3c(cc4c2CCC4)CCC3)c1N` [Example 19, 2-amino-3-((dimethylamino)methyl)-N-((1,2,3,5,6,7-hexahydro-s-indacen-4-yl)carbamoyl)benzenesulfonamide] are 0.3%, above 80% and 2.96%.

The term inhibition denotes the change of the read-out against control, counted positive when it falls.

For the origin of these results see patent publication EP4796530A1 (Biocells (Beijing) Biotech Co., Ltd., priority 2023, dated 2025).
